# Assays:
# [1] = Sterility and pyrogen status of the injectable product; details: patient-ready product
# [2] = Toxic doses / physiological effects of the non-radioactive impurities; details: quantity present in product, Table I
# cerebral blood flow = details: areas of high flow rate; limitation of water extraction in the brain tissue; cited from earlier work
compound,measurement,setting,value
CCCC[15OH] [^15 O labeled butanol],sterility and pyrogen status,[1],sterile and pyrogen-free
OB(O)O [boric acid],quantity in the product relative to quantities with observed physiological effects,[2],well below any quantity which has been observed to have any physiological effects
[15OH2] [^15 O labeled water],"cerebral blood flow measurement, deviation",cerebral blood flow,underestimation of cerebral blood flow in areas of high flow rate
